Experimental data published in ChEMBL document CHEMBL5465560, “Selectivity Literature for EUbOPEN Chemogenomic Library” (2024).
Non-standard residues stand in square brackets, D forms with d. Residues, ends and D or L forms follow the SMILES beside them. Arg(Me) = CNC(=N)NCCC[C@H](N)C(=O)O; d3Pal = N[C@H](Cc1cccnc1)C(=O)O; azaGly = NNC(=O)O

Legend:
[1] = target: T1, Cytoplasmic tyrosine-protein kinase BMX (Homo sapiens) (UniProt P51813); assay: Selectivity interaction (KinomeScan (DiscoverX)) EUB0001068a BMX; conditions: at 1 µM
T1 sequence (whole entry): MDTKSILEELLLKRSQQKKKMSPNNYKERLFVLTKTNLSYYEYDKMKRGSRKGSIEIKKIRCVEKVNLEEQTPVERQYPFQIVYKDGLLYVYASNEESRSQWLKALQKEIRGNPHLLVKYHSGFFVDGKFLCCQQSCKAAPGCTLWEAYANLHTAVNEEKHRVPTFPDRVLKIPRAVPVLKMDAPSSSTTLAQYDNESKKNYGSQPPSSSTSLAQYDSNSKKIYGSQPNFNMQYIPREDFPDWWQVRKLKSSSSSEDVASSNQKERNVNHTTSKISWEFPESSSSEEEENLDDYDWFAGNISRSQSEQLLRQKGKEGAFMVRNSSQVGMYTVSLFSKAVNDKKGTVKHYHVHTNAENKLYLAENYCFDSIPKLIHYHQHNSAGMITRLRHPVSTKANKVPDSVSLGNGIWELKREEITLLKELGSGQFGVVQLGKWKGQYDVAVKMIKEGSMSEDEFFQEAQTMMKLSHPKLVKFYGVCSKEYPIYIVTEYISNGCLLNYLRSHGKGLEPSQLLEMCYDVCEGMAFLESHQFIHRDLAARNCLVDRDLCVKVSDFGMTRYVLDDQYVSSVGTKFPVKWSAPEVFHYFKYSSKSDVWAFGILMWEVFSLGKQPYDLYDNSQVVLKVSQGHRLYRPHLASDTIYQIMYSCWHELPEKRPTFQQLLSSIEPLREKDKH

[2] = target: T2, Serine/threonine-protein kinase Nek1 (Homo sapiens) (UniProt Q96PY6); assay: Selectivity interaction (KinomeScan (DiscoverX)) EUB0001068a NEK1; conditions: at 1 µM
T2 sequence (whole entry): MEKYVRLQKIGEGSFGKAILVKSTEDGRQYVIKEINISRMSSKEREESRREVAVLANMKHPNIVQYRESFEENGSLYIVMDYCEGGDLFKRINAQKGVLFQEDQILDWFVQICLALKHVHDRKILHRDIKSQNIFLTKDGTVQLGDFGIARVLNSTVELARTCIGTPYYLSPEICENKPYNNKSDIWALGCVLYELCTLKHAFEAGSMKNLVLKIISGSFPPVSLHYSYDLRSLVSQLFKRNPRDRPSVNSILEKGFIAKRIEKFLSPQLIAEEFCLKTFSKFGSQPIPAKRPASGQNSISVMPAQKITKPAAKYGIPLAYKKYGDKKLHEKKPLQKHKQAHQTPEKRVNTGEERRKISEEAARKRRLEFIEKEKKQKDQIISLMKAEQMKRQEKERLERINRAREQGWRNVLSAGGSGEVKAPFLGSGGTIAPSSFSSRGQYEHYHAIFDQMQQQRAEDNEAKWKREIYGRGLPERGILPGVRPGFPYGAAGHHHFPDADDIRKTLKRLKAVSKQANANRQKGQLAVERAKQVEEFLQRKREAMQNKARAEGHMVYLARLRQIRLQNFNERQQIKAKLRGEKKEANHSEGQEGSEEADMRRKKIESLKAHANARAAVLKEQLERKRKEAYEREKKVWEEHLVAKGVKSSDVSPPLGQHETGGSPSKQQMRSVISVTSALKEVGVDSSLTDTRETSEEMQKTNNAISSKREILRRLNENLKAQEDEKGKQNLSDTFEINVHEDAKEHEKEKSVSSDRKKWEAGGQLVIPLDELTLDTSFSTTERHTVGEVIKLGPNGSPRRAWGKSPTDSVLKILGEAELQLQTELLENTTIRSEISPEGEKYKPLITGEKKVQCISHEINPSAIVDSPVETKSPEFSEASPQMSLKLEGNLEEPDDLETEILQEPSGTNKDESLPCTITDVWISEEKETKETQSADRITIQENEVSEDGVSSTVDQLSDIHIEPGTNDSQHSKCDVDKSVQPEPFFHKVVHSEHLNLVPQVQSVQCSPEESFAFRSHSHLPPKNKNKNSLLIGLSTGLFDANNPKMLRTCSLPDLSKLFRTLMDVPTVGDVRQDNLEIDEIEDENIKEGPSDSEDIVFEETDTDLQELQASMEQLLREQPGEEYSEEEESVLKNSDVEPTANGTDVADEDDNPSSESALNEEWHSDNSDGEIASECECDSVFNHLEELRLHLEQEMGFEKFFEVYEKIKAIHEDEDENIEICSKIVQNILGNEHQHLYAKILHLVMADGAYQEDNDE

[3] = target: Serine/threonine-protein kinase 38-like (Homo sapiens) (UniProt Q9Y2H1); assay: Selectivity interaction (KinomeScan (DiscoverX)) EUB0001068a STK38L; conditions: at 1 µM
[4] = target: Alpha-2B adrenergic receptor (Homo sapiens) (UniProt P18089); assay: Selectivity interaction (GPCR panel (PDSP screen)) EUB0001072a ADRA2B; conditions: at 10 µM
[5] = target: T3, Muscarinic acetylcholine receptor M1 (Homo sapiens) (UniProt P11229); assay: Selectivity interaction (GPCR panel (PDSP screen)) EUB0001072a CHRM1; conditions: at 10 µM
T3 sequence (whole entry): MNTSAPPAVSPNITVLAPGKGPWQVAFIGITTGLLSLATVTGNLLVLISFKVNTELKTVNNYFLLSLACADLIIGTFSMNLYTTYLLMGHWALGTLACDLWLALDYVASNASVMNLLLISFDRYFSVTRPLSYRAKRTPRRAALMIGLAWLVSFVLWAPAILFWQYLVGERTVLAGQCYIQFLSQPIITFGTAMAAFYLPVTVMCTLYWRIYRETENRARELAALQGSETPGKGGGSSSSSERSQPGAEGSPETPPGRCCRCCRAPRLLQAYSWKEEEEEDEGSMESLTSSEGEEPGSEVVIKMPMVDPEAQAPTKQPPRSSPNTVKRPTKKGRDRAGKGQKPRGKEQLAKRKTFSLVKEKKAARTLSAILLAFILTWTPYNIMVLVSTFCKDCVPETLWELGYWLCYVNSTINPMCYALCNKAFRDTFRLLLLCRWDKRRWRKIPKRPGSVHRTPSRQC

[6] = target: T4, Muscarinic acetylcholine receptor M2 (Homo sapiens) (UniProt P08172); assay: Selectivity interaction (GPCR panel (PDSP screen)) EUB0001072a CHRM2; conditions: at 10 µM
T4 sequence (whole entry): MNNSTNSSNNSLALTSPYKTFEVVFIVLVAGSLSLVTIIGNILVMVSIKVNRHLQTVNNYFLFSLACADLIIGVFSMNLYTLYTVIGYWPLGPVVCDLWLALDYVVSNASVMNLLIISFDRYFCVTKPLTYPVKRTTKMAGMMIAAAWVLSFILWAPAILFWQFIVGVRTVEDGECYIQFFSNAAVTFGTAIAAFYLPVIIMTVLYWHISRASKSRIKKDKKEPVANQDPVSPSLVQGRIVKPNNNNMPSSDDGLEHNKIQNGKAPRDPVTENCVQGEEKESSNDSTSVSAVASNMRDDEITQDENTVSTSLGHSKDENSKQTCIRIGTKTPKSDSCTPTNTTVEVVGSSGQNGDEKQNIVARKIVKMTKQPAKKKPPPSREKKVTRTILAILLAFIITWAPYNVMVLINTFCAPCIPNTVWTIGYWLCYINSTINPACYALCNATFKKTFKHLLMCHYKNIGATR

[7] = target: Muscarinic acetylcholine receptor M3 (Homo sapiens, UniProt P20309); assay: Selectivity interaction (GPCR panel (PDSP screen)) EUB0001072a CHRM3; conditions: at 10 µM
[8] = target: Muscarinic acetylcholine receptor M4 (Homo sapiens) (UniProt P08173); assay: Selectivity interaction (GPCR panel (PDSP screen)) EUB0001072a CHRM4; conditions: at 10 µM
[9] = target: Muscarinic acetylcholine receptor M5 (Homo sapiens) (UniProt P08912); assay: Selectivity interaction (GPCR panel (PDSP screen)) EUB0001072a CHRM5; conditions: at 10 µM
[10] = target: D(1B) dopamine receptor (Homo sapiens) (UniProt P21918); assay: Selectivity interaction (GPCR panel (PDSP screen)) EUB0001072a DRD5; conditions: at 10 µM
[11] = target: 4-aminobutyrate aminotransferase, mitochondrial (Homo sapiens, UniProt P80404); assay: Selectivity interaction (GPCR panel (PDSP screen)) EUB0001072a ABAT; conditions: at 10 µM
[12] = target: T5, Gamma-aminobutyric acid receptor subunit alpha-1 (Homo sapiens) (UniProt P14867); assay: (§1) Selectivity interaction (GPCR panel (PDSP screen)) EUB0001072a GABRA1; conditions: at 10 µM
T5 sequence (whole entry): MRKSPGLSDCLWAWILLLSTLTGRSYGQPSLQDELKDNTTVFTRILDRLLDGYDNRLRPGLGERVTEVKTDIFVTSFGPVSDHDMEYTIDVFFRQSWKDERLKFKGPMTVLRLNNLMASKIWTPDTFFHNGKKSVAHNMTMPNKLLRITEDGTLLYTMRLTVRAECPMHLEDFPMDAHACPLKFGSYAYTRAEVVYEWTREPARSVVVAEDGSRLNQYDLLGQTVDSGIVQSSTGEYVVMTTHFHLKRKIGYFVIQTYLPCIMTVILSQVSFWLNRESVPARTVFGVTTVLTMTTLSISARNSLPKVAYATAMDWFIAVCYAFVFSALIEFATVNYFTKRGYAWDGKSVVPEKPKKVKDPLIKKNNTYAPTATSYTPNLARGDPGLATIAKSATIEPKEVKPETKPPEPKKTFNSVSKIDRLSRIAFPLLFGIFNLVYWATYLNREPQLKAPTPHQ

[13] = target: T5, Gamma-aminobutyric acid receptor subunit alpha-1 (Homo sapiens); assay: as §1; conditions: at 10 µM; remark: listed apart in the source
Histamine H3 receptor = Histamine H3 receptor (Homo sapiens, UniProt Q9Y5N1); assay: Selectivity interaction (GPCR panel (PDSP screen)) EUB0001072a HRH3; conditions: at 10 µM
[14] = target: T6, 5-hydroxytryptamine receptor 1A (Homo sapiens) (UniProt P08908); assay: Selectivity interaction (GPCR panel (PDSP screen)) EUB0001072a HTR1A; conditions: at 10 µM
T6 sequence (whole entry): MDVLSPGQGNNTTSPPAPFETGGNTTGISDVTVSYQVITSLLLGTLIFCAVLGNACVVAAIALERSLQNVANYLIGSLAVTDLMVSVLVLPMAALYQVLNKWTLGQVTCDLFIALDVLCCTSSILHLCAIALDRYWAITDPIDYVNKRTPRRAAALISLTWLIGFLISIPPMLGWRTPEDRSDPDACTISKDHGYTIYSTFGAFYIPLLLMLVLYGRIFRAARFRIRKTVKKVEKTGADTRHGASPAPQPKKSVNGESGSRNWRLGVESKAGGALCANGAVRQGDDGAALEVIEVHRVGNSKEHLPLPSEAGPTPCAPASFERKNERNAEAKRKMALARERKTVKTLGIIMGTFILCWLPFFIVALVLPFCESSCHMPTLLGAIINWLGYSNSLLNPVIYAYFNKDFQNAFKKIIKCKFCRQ

[15] = target: 5-hydroxytryptamine receptor 1B (Homo sapiens) (UniProt P28222); assay: Selectivity interaction (GPCR panel (PDSP screen)) EUB0001072a HTR1B; conditions: at 10 µM
[16] = target: 5-hydroxytryptamine receptor 1D (Homo sapiens) (UniProt P28221); assay: Selectivity interaction (GPCR panel (PDSP screen)) EUB0001072a HTR1D; conditions: at 10 µM
[17] = target: 5-hydroxytryptamine receptor 1E (Homo sapiens) (UniProt P28566); assay: Selectivity interaction (GPCR panel (PDSP screen)) EUB0001072a HTR1E; conditions: at 10 µM
[18] = target: 5-hydroxytryptamine receptor 2A (Homo sapiens, UniProt P28223); assay: Selectivity interaction (GPCR panel (PDSP screen)) EUB0001072a HTR2A; conditions: at 10 µM
[19] = target: 5-hydroxytryptamine receptor 2B (Homo sapiens, UniProt P41595); assay: Selectivity interaction (GPCR panel (PDSP screen)) EUB0001072a HTR2B; conditions: at 10 µM
[20] = target: 5-hydroxytryptamine receptor 5A (Homo sapiens) (UniProt P47898); assay: Selectivity interaction (GPCR panel (PDSP screen)) EUB0001072a HTR5A; conditions: at 10 µM
[21] = target: Sodium-dependent dopamine transporter (Homo sapiens, UniProt Q01959); assay: Selectivity interaction (GPCR panel (PDSP screen)) EUB0001072a SLC6A3; conditions: at 10 µM
[22] = target: Mitogen-activated protein kinase kinase kinase kinase 5 (Homo sapiens) (UniProt Q9Y4K4); assay: Selectivity interaction (33PanQinase Assay (Reaction Biology)) EUB0001107a MAP4K5
[23] = target: Serine/threonine-protein kinase PAK 2 (Homo sapiens) (UniProt Q13177); assay: Selectivity interaction (33PanQinase Assay (Reaction Biology)) EUB0001107a PAK2
[24] = target: Serine/threonine-protein kinase PAK 3 (Homo sapiens) (UniProt O75914); assay: Selectivity interaction (33PanQinase Assay (Reaction Biology)) EUB0001107a PAK3

Chain of 5-hydroxytryptamine receptor 5A (Homo sapiens) (P47898 whole entry): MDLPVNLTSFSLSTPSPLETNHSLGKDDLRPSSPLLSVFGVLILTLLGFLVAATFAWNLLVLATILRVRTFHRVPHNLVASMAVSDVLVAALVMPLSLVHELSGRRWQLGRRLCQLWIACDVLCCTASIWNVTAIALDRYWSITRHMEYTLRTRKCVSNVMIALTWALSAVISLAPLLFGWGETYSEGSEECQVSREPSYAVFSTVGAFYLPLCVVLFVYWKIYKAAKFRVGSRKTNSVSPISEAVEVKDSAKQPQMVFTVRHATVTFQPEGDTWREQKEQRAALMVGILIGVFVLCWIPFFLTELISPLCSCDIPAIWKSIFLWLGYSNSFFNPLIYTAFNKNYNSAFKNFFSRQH
Chain of Muscarinic acetylcholine receptor M4 (Homo sapiens) (P08173 whole entry): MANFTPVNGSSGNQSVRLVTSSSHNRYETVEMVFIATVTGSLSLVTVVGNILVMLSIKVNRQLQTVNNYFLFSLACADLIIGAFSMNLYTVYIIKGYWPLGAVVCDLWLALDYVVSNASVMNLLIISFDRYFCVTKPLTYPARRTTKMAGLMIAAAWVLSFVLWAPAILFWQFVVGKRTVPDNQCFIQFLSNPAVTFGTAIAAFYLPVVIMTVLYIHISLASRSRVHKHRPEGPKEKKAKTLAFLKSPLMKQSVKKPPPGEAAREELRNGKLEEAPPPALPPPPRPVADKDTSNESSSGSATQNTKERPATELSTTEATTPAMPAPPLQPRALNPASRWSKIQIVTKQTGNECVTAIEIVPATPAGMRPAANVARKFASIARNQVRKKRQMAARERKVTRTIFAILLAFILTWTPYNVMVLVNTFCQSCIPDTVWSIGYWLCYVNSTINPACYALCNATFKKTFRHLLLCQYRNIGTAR
Chain of Sodium-dependent dopamine transporter (Q01959 whole entry): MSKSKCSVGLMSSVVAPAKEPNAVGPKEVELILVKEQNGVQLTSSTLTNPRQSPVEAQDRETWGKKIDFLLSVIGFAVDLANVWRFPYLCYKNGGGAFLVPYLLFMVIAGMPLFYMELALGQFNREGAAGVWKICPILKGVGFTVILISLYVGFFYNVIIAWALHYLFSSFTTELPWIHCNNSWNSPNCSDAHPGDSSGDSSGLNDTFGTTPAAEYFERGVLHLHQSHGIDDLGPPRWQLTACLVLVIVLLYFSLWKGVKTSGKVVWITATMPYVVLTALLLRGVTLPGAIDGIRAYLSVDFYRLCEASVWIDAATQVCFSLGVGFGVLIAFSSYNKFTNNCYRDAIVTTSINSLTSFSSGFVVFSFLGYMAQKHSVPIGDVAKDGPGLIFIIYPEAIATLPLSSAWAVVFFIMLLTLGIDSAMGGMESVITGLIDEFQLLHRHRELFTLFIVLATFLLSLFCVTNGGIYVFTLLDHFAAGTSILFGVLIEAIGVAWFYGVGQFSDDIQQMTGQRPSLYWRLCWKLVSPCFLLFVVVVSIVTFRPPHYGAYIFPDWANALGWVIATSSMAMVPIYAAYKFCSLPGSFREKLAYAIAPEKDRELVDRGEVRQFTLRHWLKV
Chain of Serine/threonine-protein kinase PAK 2 (Homo sapiens) (Q13177 whole entry): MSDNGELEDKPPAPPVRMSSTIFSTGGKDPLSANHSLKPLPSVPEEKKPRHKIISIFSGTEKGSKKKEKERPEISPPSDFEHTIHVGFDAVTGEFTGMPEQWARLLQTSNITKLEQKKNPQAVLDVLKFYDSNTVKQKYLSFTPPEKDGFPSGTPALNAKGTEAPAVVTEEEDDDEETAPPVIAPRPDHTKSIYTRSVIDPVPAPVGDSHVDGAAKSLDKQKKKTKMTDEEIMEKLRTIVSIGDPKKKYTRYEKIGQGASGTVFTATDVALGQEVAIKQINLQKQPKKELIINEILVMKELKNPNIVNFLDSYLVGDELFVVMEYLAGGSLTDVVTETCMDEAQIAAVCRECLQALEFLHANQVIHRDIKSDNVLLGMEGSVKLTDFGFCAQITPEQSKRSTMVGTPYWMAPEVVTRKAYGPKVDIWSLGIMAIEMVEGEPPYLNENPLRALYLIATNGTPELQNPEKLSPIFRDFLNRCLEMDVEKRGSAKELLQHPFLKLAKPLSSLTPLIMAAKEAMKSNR
Chain of 5-hydroxytryptamine receptor 1B (Homo sapiens) (P28222 whole entry): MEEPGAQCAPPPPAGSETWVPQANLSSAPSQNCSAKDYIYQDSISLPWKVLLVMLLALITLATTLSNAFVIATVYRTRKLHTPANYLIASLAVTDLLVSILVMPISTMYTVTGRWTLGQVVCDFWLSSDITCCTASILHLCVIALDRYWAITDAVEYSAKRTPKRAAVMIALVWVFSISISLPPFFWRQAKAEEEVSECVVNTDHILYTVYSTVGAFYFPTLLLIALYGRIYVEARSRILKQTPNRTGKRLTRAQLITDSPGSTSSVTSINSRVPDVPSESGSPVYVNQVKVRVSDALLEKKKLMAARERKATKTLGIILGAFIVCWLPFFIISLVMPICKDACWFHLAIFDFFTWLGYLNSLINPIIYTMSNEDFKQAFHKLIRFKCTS
Chain of 4-aminobutyrate aminotransferase, mitochondrial (P80404 whole entry): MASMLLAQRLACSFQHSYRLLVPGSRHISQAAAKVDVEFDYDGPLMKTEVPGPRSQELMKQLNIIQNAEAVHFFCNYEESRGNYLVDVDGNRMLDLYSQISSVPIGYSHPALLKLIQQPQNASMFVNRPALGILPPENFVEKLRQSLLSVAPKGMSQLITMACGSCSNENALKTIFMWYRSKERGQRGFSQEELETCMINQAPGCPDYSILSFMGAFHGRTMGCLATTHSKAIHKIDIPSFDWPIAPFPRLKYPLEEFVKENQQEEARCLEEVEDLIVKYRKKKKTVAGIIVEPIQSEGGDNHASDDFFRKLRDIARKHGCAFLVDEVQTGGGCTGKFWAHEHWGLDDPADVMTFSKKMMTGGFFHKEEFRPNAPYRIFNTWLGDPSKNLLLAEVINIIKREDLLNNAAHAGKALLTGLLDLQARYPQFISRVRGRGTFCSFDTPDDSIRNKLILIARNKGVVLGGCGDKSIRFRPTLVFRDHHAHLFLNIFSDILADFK
Chain of Serine/threonine-protein kinase 38-like (Homo sapiens) (Q9Y2H1 2-464 limits assumed): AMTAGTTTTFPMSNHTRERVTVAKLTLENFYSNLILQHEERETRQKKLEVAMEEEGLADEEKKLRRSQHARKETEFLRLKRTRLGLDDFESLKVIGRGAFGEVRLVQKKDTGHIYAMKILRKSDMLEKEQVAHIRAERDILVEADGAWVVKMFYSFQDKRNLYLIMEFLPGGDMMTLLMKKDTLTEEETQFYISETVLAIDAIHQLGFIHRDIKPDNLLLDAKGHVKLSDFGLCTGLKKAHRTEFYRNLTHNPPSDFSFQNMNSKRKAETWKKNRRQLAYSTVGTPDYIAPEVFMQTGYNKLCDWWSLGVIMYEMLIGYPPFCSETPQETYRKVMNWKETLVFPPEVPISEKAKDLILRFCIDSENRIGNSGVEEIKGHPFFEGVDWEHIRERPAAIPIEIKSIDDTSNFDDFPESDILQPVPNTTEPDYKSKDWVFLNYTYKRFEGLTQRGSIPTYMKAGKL
Chain of Histamine H3 receptor (Q9Y5N1 whole entry): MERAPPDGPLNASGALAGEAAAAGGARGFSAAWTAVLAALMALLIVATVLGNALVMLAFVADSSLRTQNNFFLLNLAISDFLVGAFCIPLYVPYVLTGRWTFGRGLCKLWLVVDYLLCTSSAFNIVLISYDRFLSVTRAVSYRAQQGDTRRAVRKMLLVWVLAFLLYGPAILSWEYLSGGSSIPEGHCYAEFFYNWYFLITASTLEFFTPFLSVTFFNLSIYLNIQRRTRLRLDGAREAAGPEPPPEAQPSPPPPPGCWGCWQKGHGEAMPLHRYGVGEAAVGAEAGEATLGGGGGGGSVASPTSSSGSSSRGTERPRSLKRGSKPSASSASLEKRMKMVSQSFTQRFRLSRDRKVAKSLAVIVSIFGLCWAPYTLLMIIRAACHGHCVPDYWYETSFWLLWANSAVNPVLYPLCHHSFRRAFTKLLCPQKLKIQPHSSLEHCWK
Chain of Mitogen-activated protein kinase kinase kinase kinase 5 (Homo sapiens) (Q9Y4K4 whole entry, looked up): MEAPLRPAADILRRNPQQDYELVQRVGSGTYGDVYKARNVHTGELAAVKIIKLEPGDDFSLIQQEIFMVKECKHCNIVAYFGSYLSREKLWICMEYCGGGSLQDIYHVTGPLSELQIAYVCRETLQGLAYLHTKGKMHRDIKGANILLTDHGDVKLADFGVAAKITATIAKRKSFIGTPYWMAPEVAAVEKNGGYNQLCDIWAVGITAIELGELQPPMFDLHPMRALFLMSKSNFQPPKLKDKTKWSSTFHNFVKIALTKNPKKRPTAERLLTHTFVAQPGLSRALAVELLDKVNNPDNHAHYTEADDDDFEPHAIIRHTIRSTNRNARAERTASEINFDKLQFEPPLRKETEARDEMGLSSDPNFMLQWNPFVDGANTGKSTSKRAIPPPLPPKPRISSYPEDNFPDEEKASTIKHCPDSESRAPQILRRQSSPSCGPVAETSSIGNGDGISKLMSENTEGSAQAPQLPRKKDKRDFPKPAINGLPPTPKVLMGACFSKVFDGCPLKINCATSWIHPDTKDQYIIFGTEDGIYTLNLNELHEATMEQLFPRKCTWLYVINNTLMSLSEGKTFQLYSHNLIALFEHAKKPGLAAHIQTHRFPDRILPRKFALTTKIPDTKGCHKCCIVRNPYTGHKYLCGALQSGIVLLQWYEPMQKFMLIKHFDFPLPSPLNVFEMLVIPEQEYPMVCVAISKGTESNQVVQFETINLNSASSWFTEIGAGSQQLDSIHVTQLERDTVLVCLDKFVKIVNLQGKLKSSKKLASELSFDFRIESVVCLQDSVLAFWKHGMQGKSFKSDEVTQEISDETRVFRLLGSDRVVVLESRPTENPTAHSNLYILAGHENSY
Chain of 5-hydroxytryptamine receptor 1E (Homo sapiens) (P28566 whole entry): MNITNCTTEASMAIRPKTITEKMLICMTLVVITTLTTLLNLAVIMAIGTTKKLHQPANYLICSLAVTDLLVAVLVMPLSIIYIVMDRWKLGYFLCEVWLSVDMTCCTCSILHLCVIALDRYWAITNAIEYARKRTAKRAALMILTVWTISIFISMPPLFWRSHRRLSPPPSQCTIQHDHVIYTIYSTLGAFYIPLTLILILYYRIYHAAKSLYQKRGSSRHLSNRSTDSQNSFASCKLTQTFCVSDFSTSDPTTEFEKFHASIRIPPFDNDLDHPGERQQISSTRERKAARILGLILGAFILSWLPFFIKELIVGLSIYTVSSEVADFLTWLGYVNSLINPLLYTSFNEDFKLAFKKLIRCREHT

SMILES: CN(C(=O)c1ccccc1)c1cc(N(C)c2ccc3c(c2)CCc2ccc(C(=O)NCCN4CCOCC4)cc2C3=O)ccc1F
- % of control [1]: 50%
- % of control [2]: 45%
- % of control [3]: 47%

SMILES: CNC(=N)NCCC[C@H](NC(=O)[C@H](CC(C)C)NC(=O)NNC(=O)[C@H](Cc1ccccc1)NC(=O)[C@H](CO)NC(=O)[C@H](CC(N)=O)NC(=O)[C@@H](Cc1cccnc1)NC(=O)[C@H](N)Cc1ccc(O)cc1)C(=O)NCC(N)=O (H-[dY][d3Pal]NSF[azaGly]L[Arg(Me)]G-NH2)
- % of inhibition [4]: 14.5%
- % of inhibition [5]: 15.1%
- % of inhibition [6]: 40.7%
- % of inhibition [7]: 24.7%
- % of inhibition [8]: 18.5%
- % of inhibition [9]: 12.3%
- % of inhibition [10]: 29.2%
- % of inhibition [11]: 15.6%
- % of inhibition [12]: 15.5%
- % of inhibition [13]: 12.3%
- % of inhibition (Histamine H3 receptor): 12.5%
- % of inhibition [14]: 30.9%
- % of inhibition [15]: 31%
- % of inhibition [16]: 12.4%
- % of inhibition [17]: 27.9%
- % of inhibition [18]: 16.9%
- % of inhibition [19]: 11.3%
- % of inhibition [20]: 16.3%
- % of inhibition [21]: 10.4%

SMILES: CNc1ncc2cc(-c3ccc(-c4ncccc4F)cc3Cl)c(=O)n(C[C@H]3OC[C@H](N)CO3)c2n1
- % of residual activity [22]: 8%
- % of residual activity [23]: 10%
- % of residual activity [24]: 9%
